The text below walks through data of paper PMC4077438, “Biantennary oligoglycines and glyco-oligoglycines self-associating in aqueous medium” (Beilstein Journal of Organic Chemistry, 2014).

Marks after values point to notes of the source that are not given here.

A short description of series [1]: association (tectomer formation) on mica surface by scanning force microscopy (SFM). It is filed as physicochemical. As to conditions: 0.1 mg/mL; for tectomer layer height on mica: рН 6.5, tapping mode in air.
In series [2] the test system is influenza virus A/Н3N2/29/90. In words: fetuin binding inhibition test (FBI-test), influenza virus receptor binding inhibition assay.
The nature of series [3]: association in aqueous solution by dynamic light scattering (DLS). It is filed as physicochemical.
The subject of series [4] is influenza virus A/H5N2. It is filed as binding.
Series [5] has as its system influenza virus A/H1N1/NIB23. Kind of series: fetuin binding inhibition test (FBI-test), influenza virus receptor binding inhibition assay.
Setting [6] is: FBI-test, value in parentheses for monomeric sialoside.

Н-Gly5-NH(СН2)2NH-Gly5-Н: the “tectomer layer height on mica” value in series [1] was 3.3 nm. The “planar dimensions of islet-like tectomers on mica” value in series [1] (рН 6.5, texp = 10 min, tapping mode in air) is given as 500–700 nm.

In the case of `CC(=O)N[C@H]1[C@H]([C@H](O)[C@H](O)CO)O[C@@](OCc2ccccc2)(C(=O)O)C[C@@H]1O` [Neu5AcαOBn], the half-maximal inhibitory concentration (IC50) (in general, the midpoint of a concentration-inhibition curve) in series [2] (setting [6]) is 150 µM. In series [2] (inhibition of binding of fetuin peroxidase conjugate to virus immobilized on plastic, related to monomer Neu5AcαOBn = 1), this compound displayed a Relative activity of 1.

Consider Н-Gly4NH(СН2)10NHGly4-Н, for which, in series [3] (neutral and basic media (рН 6.5 and 8.5, after NaHCO3 or Na2CO3), concentration ≤0.1 mg/mL), the “size of associates stable in aqueous media” value was 800–1200 nm. The “tectomer layer height on mica” value in series [1] is recorded as 3.7–4.0 nm.

On to `CC(=O)N[C@H]1[C@H]([C@H](O)[C@H](O)CO)O[C@@](O[C@H]2[C@@H](O)[C@@H](CO)O[C@@H](O[C@H]3[C@H](O)[C@@H](O)[C@H](O)O[C@@H]3CO)[C@@H]2O)(C(=O)O)C[C@@H]1O` [3’SL, Neu5Acα2-3Galβ1-4Glcβ], for which, in series [4], half-maximal inhibition (IC50) was put at 150 µM and the Relative activity is 1(150)^b.

As to Н-Gly4NH(СН2)10NHGly4-Н·2HCl, the “concentration at which the peptide associates in acidic solution” value in series [3] (aqueous solution, рН < 5) is no less than 0.5 mg/mL.

With `CC(=O)N[C@H]1[C@H]([C@H](O)[C@H](O)CO)O[C@](OC[C@H]2O[C@@H](O[C@H]3[C@H](O)[C@@H](NC(C)=O)C(O)O[C@@H]3CO)[C@H](O)[C@@H](O)[C@H]2O)(C(=O)O)C[C@@H]1O` (some centres unmarked) [6’SLN, Neu5Acα2-6Galβ1-4GlcNAcβ], in series [5] (setting [6]), the IC50 came to 150 µM. Moreover, the Relative activity in series [5] (inhibition of binding of fetuin peroxidase conjugate to immobilized virus, related to monomer 6’SLN = 1) turned out to be 1.
